Oligonucleotides are written 5' to 3', each unit as a sugar letter and its base; * is a phosphorothioate linkage, no mark a phosphodiester; rarer units and linkages stand in square brackets, end groups in braces. Plain capitals give the bases only. {Fethoc} = N-terminal Fethoc cap; [C(1O2)] = modified PNA monomer acting as cytosine, C(pOq) type, 1O2; [C(1O5)] = modified PNA monomer acting as cytosine, C(pOq) type, 1O5; [A(5)] = modified PNA monomer acting as adenine, A(p) type, p=5; [A(6)] = modified PNA monomer acting as adenine, A(p) type, p=6; [G(5)] = modified PNA monomer acting as guanine, G(p) type, p=5; [G(6)] = modified PNA monomer acting as guanine, G(p) type, p=6; [PNA-N] = PNA monomer with natural nucleobase (N: the base); {NH2} = C-terminal amide; [G(G)] = code of the source, not defined here; [Lys] = lysine residue in the chain; [Val] = valine residue in the chain; {Piv} = N-terminal pivaloyl group; {Fmoc} = N-terminal Fmoc cap
system: complementary 10-mer DNA; test: Tm of 10-mer model PNA with complementary 10-mer DNA; format: binding; conditions: 4 μM PNA and 4 μM complementary 10-mer DNA, aqueous buffer pH 7.16, uncorrected
Protocol: The 10-mer PNA oligomers in Table 12 were evaluated for their binding affinity for the complementary 10-mer RNA or DNA by measuring Tm values as described below.
(§1) A mixed solution of 4 μM 10-mer PNA oligomer and 4 μM complementary 10-mer DNA or RNA in 4 mL aqueous buffer (pH 7.16, 10 mM sodium phosphate, 100 mM NaCl) in 15 mL polypropylene falcon tube was incubated at 90° C. for a minute and slowly cooled down to ambient temperature. Then the solution was transferred into a 4 mL quartz UV cuvette, and subjected to Tm measurement at 260 nm on a UV/Visible spectrophotometer as described in the prior art [PCT/KR2009/001256] or with minor modifications. The DNA and RNA for Tm measurement were purchased from Bioneer (www.bioneer.com, Dajeon, Republic of Korea) and used without further purification.

Substance | Tm [°C]
Fmoc-GTA(5)-GAT-CA(5)C-T-NH2 (GTAGATCACT; all peptide nucleic acid (PNA), [A(5)] at 3, 8, 5' {Fmoc}, 3' {NH2}; model 10-mer peptide nucleic acid written N to C) [PNA 10-3] | 61
Fmoc-GTA-G(5)AT-CAC-T-NH2 (GTAGATCACT; all peptide nucleic acid (PNA), [G(5)] at 4, 5' {Fmoc}, 3' {NH2}; model 10-mer peptide nucleic acid written N to C) [PNA 10-5] | 53

same assay, conditions: complementary 10-mer DNA

Substance | ΔTm (Tm value - Tm value of PNA 10-1)
Fmoc-GTA(5)-GAT-CA(5)C-T-NH2 (GTAGATCACT; all peptide nucleic acid (PNA), [A(5)] at 3, 8, 5' {Fmoc}, 3' {NH2}; model 10-mer peptide nucleic acid written N to C) [PNA 10-3] | +10 °C
Fmoc-GTA-G(5)AT-CAC-T-NH2 (GTAGATCACT; all peptide nucleic acid (PNA), [G(5)] at 4, 5' {Fmoc}, 3' {NH2}; model 10-mer peptide nucleic acid written N to C) [PNA 10-5] | +2 °C

system: 10-mer complementary DNA; test: Tm between PNA derivatives and 10-mer complementary DNA (N- or C-terminal); format: binding; conditions: uncorrected
Protocol: as §1
PNA derivatives of Formula I were evaluated for their binding affinity for 10-mer DNAs complementarily targeting either the N-terminal or C-terminal. The binding affinity was assessed by the Tm value for the duplex between PNA and 10-mer complementary DNA. The duplex between PNA derivatives and DNAs of full complementarity usually show Tm values too high to be reliably determined in aqueous buffer solution. The aqueous buffer solution tends to boil off during Tm measurement.

Substance | Tm Value, 10-mer DNA against C-Terminal [°C] | Tm Value, 10-mer DNA against N-Terminal [°C]
Fethoc-A(5)AG-TG(6)T-A(5)CC(1O2)-TAA-A(5)-NH2 (AAGTGTACCTAAA; splice-switching; all peptide nucleic acid (PNA), [A(5)] at 1, 7, 13, [G(6)] at 5, [C(1O2)] at 9, 5' {Fethoc}, 3' {NH2}; peptide nucleic acid written N to C) [SCN-ASO 24] | 66.0 | 77.0
Fethoc-A(5)GT-G(5)TA(5)-CC(1O2)T-A(5)AA(5)-C-NH2 (AGTGTACCTAAAC; splice-switching; all peptide nucleic acid (PNA), [A(5)] at 1, 6, 10, 12, [G(5)] at 4, [C(1O2)] at 8, 5' {Fethoc}, 3' {NH2}; peptide nucleic acid written N to C) [SCN-ASO 28] | 70.0 | 78.1
Fethoc-A(6)GA-A(6)CT-CA(6)T-CC(1O2)T-A(6)CT-TA(6)-NH2 (antisense AGAACTCATCCTACTTA; all peptide nucleic acid (PNA), [A(6)] at 1, 4, 8, 13, 17, [C(1O2)] at 11, 5' {Fethoc}, 3' {NH2}; peptide nucleic acid written N to C) [HIF-ASO 11] | 61.0 | 73.4
Fethoc-A(6)TT-TG(5)T-TA(6)C-C(1O2)CT-G(5)G-NH2 (ATTTGTTACCCTGG; all peptide nucleic acid (PNA), [A(6)] at 1, 8, [G(5)] at 5, 13, [C(1O2)] at 10, 5' {Fethoc}, 3' {NH2}; peptide nucleic acid written N to C) [SNAP-ASO 12] | 74.0 | 62.0
Fethoc-A(6)TT-TG(G)T-TA(5)C-C(1O2)CT-G(5)-NH2 (antisense ATTTGTTACCCTG; all peptide nucleic acid (PNA), [A(6)] at 1, [G(G)] at 5, [A(5)] at 8, [C(1O2)] at 10, [G(5)] at 13, 5' {Fethoc}, 3' {NH2}; peptide nucleic acid written N to C) [SNAP-ASO 9] | 76.0 | 62.0
Fethoc-AA(5)G-TG(5)T-A(5)CC(1O2)-TA(5)A-A(5)-NH2 (AAGTGTACCTAAA; splice-switching; all peptide nucleic acid (PNA), [A(5)] at 2, 7, 11, 13, [G(5)] at 5, [C(1O2)] at 9, 5' {Fethoc}, 3' {NH2}; peptide nucleic acid written N to C) [SCN-ASO 26] | 72.0 | 75.0
Fethoc-AA(5)G-TG(6)T-A(5)CC(1O2)-TAA(5)-A-NH2 (AAGTGTACCTAAA; splice-switching; all peptide nucleic acid (PNA), [A(5)] at 2, 7, 12, [G(6)] at 5, [C(1O2)] at 9, 5' {Fethoc}, 3' {NH2}; peptide nucleic acid written N to C) [SCN-ASO 22] | 65.0 | 74.0
Fethoc-AAG(6)-TG(6)T-A(5)CC(1O2)-TA(5)A-A-NH2 (AAGTGTACCTAAA; splice-switching; all peptide nucleic acid (PNA), [G(6)] at 3, 5, [A(5)] at 7, 11, [C(1O2)] at 9, 5' {Fethoc}, 3' {NH2}; peptide nucleic acid written N to C) [SCN-ASO 25] | 66.0 | 78.0
Fethoc-C(1O5)TT-A(6)TC-CTA(6)-C(1O2)TT-AA(6)C-NH2 (CTTATCCTACTTAAC; all peptide nucleic acid (PNA), [C(1O5)] at 1, [A(6)] at 4, 9, 14, [C(1O2)] at 10, 5' {Fethoc}, 3' {NH2}; peptide nucleic acid backbone) [HIF-ASO 7] | 61.0 | 69.0
Fethoc-CA(6)T-CA(6)T-TTG(5)-TTA(5)-CCC(1O2)-TG(5)-NH2 (CATCATTTGTTACCCTG; all peptide nucleic acid (PNA), [A(6)] at 2, 5, [G(5)] at 9, 17, [A(5)] at 12, [C(1O2)] at 15, 5' {Fethoc}, 3' {NH2}; peptide nucleic acid written N to C) [SNAP-ASO 10] | 68.0 | 61.0
Fethoc-CA(6)T-TTG(5)-TTA(5)-CCC(1O2)-TG(5)-NH2 (antisense CATTTGTTACCCTG; all peptide nucleic acid (PNA), [A(6)] at 2, [G(5)] at 6, 14, [A(5)] at 9, [C(1O2)] at 12, 5' {Fethoc}, 3' {NH2}; peptide nucleic acid written N to C) [SNAP-ASO 8] | 68.0 | 58.0
Fethoc-CTC(1O2)-A(6)TC-CTA(6)-C(1O2)TT-AA(6)C-NH2 (CTCATCCTACTTAAC; all peptide nucleic acid (PNA), [C(1O2)] at 3, 10, [A(6)] at 4, 9, 14, 5' {Fethoc}, 3' {NH2}; peptide nucleic acid backbone) [HIF-ASO 8] | 61.0 | 73.0
Fethoc-CTT-A(5)CG(6)-C(1O2)AA(5)-AA(5)A-C(1O2)AA(5)-NH2 (CTTACGCAAAAACAA; all peptide nucleic acid (PNA), [A(5)] at 4, 9, 11, 15, [G(6)] at 6, [C(1O2)] at 7, 13, 5' {Fethoc}, 3' {NH2}; peptide nucleic acid written N to C) [SCN-ASO 12] | 77.0 | 76.0
Fethoc-G(5)AA(6)-CTT-A(6)TC-CTA(6)-C(1O2)T-NH2 (GAACTTATCCTACT; splice-switching; all peptide nucleic acid (PNA), [G(5)] at 1, [A(6)] at 3, 7, 12, [C(1O2)] at 13, 5' {Fethoc}, 3' {NH2}; peptide nucleic acid backbone) [HIF-ASO 5] | 58.0 | 62.0
Fethoc-GA(5)A-C(1O2)TT-A(5)TC-CTA(5)-CT-NH2 (GAACTTATCCTACT; splice-switching; all peptide nucleic acid (PNA), [A(5)] at 2, 7, 12, [C(1O2)] at 4, 5' {Fethoc}, 3' {NH2}; peptide nucleic acid backbone) [HIF-ASO 4] | 53.4 | 66.0
Fethoc-TA(5)C-CAG(6)-GC(1O2)A-A(5)GG(6)-C-NH2 (antisense TACCAGGCAAGGC; all peptide nucleic acid (PNA), [A(5)] at 2, 10, [G(6)] at 6, 12, [C(1O2)] at 8, 5' {Fethoc}, 3' {NH2}; peptide nucleic acid backbone) [AR-ASO 4] | 84.5 | 84.3
Fethoc-TG(5)T-TA(6)C-C(1O2)CT-GG(5)G-A(5)-NH2 (TGTTACCCTGGGA; all peptide nucleic acid (PNA), [G(5)] at 2, 11, [A(6)] at 5, [C(1O2)] at 7, [A(5)] at 13, 5' {Fethoc}, 3' {NH2}; peptide nucleic acid written N to C) [SNAP-ASO 2] | 87.6 | 76.0
Fethoc-TG(6)T-TA(5)A-A(5)TA(5)-CGC(1O2)-AA(5)A-A(5)A-NH2 (TGTTAAATACGCAAAAA; all peptide nucleic acid (PNA), [G(6)] at 2, [A(5)] at 5, 7, 9, 14, 16, [C(1O2)] at 12, 5' {Fethoc}, 3' {NH2}; peptide nucleic acid written N to C) [SCN-ASO 4] | 71.6 | 63.5
Piv-A(6)TC-CTA(6)-C(1O2)TT-A(5)AC-NH2 (ATCCTACTTAAC; splice-switching; all peptide nucleic acid (PNA), [A(6)] at 1, 6, [C(1O2)] at 7, [A(5)] at 10, 5' {Piv}, 3' {NH2}; peptide nucleic acid backbone) [HIF-ASO 9] | 59.0 | 60.9
Piv-Lys-AA(6)C-TTA(6)-TCC(1O2)-TA(6)C-TTA(5)-Val-NH2 (antisense {Piv}[Lys][PNA-A][PNA-A(6)][PNA-C][PNA-T][PNA-T][PNA-A(6)][PNA-T][PNA-C][PNA-C(1O2)][PNA-T][PNA-A(6)][PNA-C][PNA-T][PNA-T][PNA-A(5)][Val]-{NH2}; peptide nucleic acid backbone) [HIF-ASO 10] | 60.0 | 61.0

Source: US12624068B2, “Exon skipping by peptide nucleic acid derivatives” (OliPass Corporation, priority 2016, dated 2026)
